Read-outs that look alike come from different tables or passages of the source.

The values that follow come from US5922891A, “2-substituted 1,8-dihydroxy-9(10H)-anthracenone pharmaceuticals” (priority 1997, dated 1999).

For series [1], the system named is HaCaT cells. In words: Antiproliferative activity against HaCaT cells (human keratinocyte cell line). It is filed as cell-based. The settings on record: 48 h, read-out: AA IC50 (antiproliferative activity). As for the experimental part: HaCaT cells were grown in Dulbecco's modified Eagle's medium (DMEM, No. 041-11954A, Gibco) supplemented with 10% fetal calf serum, penicillin (100 U/mL), and streptomycin (100 μg/mL) in a humidified incubator containing 8% CO2 at 37° C. Cells (2.5·10^4 /1.1 ml per well) were seeded on 24-well multidishes and grown in DMEM. After 24 hours of growth, the medium was replaced with fresh medium and a test compound (0.1-5 μM) was added from freshly made stock solutions, which were prepared in DMSO and diluted with DMEM. The final concentration of DMSO in the culture medium was 0.2%. Controls were performed using DMSO or medium alone. Forty-eight hours after addition of a test compound to the culture, the medium was removed and each well was rinsed with phosphate-buffered saline (PBS, 100 μL). The cells were then incubated with sterile 0.5% trypsin, 0.2% EDTA in PBS for 20 minutes at 37° C. The detached cells from each well were suspended in DMEM and dispersed as single cells by gentle pipetting through an Eppendorf pipette. Cell growth was determined directly by counting the keratinocytes on a Neubauer counting chamber using phase contrast microscopy. Inhibition of cell proliferation was calculated by a comparison of the mean value of the test compound (N=3) with the control (N=6-8) activity: (1-test compound/control)×100.

Series [2] in a line: Inhibition of AAPH-induced lipid peroxidation in bovine brain phospholipid liposomes. It is filed as biochemical. Particulars: AAPH-induced; bovine brain phospholipid liposomes; N = 3 or more; read-out: LPO IC50 (inhibition of lipid peroxidation). The protocol:
Phospholipids were prepared essentially as described by Gutteridge, J. M. C., (Anal. Biochem., 82: 76-82 (1977)). Bovine brain tissue was cooled on ice, freed from blood vessels and washed repeatedly with 0.15 M NaCl, pH 7.4. The tissue was cut into pieces and then macerated with an ultra-turrax, passed through a fine-meshed sieve, and extracted four times with four times the volume of acetone. The extraction mixture was filtered by suction to remove the acetone, the residue dried under vacuum, and then repeatedly extracted with petroleum ether (40-60) using twice the volume of the original brain homogenate. The combined extracts were filtered, dried at 45° C., and dissolved in ether (one fifth the original brain volume). The mixture was treated with five times the volume of acetone, and the resulting precipitate was collected by suction-filtration, dried and stored under N2 at -20° C. in the dark. Bovine brain phospholipids were weighed into glass tubes and shaken in a vortex mixer (Heidolph) in the presence of five small glass beads (.phi. 4 mm) for 1 minute. The phospholipids were suspended in 0.15 M NaCl, pH 7.4, to a final concentration of 5 mg/ml. The mixture was purged with N2 for 1 minute and vigorously dispersed in a vortex mixer for 5 minutes. The liposomes were allowed to swell for 1 hour at 4° C., and vesicles with a mean size of 1-10 μm were obtained according to the method of Bangham, et al., (J. Mol. Biol., 13:238-252 (1965). The liposomes were stimulated with the azo initiator 2 2'-azobis (2-amidinopropane) hydrochloride according to the method of Gutteridge, J. M. C., (Anal. Biochem. 82:76-82 (1977)).
The following reagents were added to the glass tubes containing stimulating bovine brain phospholipid piposomes in the order and at the final concentrations listed: 0.3 ml HK2 PO4 --KOH buffer, pH 7.4 (30 mM), 0.29 ml double distilled H2 O, 0.2 ml liposomes (1 mg/ml), 0.2 ml FeCl3.H2 O (0.1 mM), 0.01 ml 2-substituted anthracenone compound of the invention (variable concentrations).
Appropriate blanks and controls using the vehicle (acetone) were conducted. The final reaction volumes were standardized to 1.0 ml. The reaction mixtures were incubated for 1 hour at 37° C. in a shaking water bath. […] of 20% (w/v) BHT, 0.5 ml 25% (w/v) HCl and 0.5 ml of 1% 2-thiobarbituric acid were added and the samples were heated at 100° C. for 15 minutes and then cooled in an ice bath (5 minutes). 2 ml of 1-butanol were added and the mixtures were vigorously shaken in a vortex mixer (Heidolph) for 15 seconds. The organic layer was separated by centrifugation at 3000 rpm (15 minutes) and absorbance at 532 nm was measured against butanol.

A short description of series [3]: Deoxyribose degradation as a measure of hydroxyl radical formation. The class given is biochemical. The settings on record: 75 μM test compound; controls < 0.1. The protocol: ^c Deoxyribose degradation as a measure of hydroxyl radical formation
Indicated values are μmoles of malondialdehyde per mmole of deoxyribos
released by 75 μM test compound (controls < 0.1).
Degradation of deoxyribose provides a measurement of the amount of hydroxyl radical formation caused by the test compounds. The assay used to determine degradation of 2-deoxy-D-ribose followed generally the procedures of Gutteridge, J. M. C., Biochem. J., 224: 761-767 (1984) and Laughton, et al., Biochem. Pharmacol., 38: 2859-2865 (1989). The following reagents were added to glass tubes in the order and at the final concentrations listed. 0.3 mL kH2 PO4 --KOH buffer, pH 7.4 (30 mM), 0.2 ml double distilled H2 O, 0.2 ml 2-deoxy-D-ribose (2 mM), 0.2 ml FeCl3.6H2 O (0.1 mM), 0.1 ml 2-substituted anthracenone ([…]). Stock solutions of each of the 2-substituted anthracenone compounds were made up fresh before use. Appropriate blanks and controls using an acetronitrile vehicle were performed.
Final reaction volumes were standardized to 1.0 ml. The reaction mixtures were incubated for 2 hours at 37° C. in a shaking water bath at 50 rpm. 1 ml of 2.8% (w/v) trichloracetic acid and 1 ml of 1% (w/v in 0.05 N NaOH) 2-thiobarbituric acid (TBA) were added, and the samples were heated at 100° C. for 15 minutes and then cooled in an ice bath (5 minutes). 2 ml of each reaction mixture was treated with 0.05 ml of 36% (w/v) HCl and 2 of 1-butanol, followed by vigorous shaking with a vortex mixer (Heidolph) for 15 seconds. The organic layer was separated by centrifugation at 3000 rpm (15 minutes) and absorbance at 532 nm was measured against butanol. Calibration was performed using a malondialdehyde (MDA) standard prepared by hydrolysis of 1,1,3,3-tetraethoxypropane (Gutteridge, J. M. C., Anal. Biochem., 69: 518-526 (1975). TBA reactive material was expressed in terms of μmol MDA per μmol deoxyribose. The results of the assay are provided in Table I.

The target in series [4] is T1, 5-LO in bovine PMNL (Bos taurus, UniProt F1MQ78).
T1 construct: The purified PMNLs were suspended at a concentration of; endogenous in cells; host or cells: polymorphonuclear leukocytes isolated from bovine blood
T1 sequence (F1MQ78 1-674): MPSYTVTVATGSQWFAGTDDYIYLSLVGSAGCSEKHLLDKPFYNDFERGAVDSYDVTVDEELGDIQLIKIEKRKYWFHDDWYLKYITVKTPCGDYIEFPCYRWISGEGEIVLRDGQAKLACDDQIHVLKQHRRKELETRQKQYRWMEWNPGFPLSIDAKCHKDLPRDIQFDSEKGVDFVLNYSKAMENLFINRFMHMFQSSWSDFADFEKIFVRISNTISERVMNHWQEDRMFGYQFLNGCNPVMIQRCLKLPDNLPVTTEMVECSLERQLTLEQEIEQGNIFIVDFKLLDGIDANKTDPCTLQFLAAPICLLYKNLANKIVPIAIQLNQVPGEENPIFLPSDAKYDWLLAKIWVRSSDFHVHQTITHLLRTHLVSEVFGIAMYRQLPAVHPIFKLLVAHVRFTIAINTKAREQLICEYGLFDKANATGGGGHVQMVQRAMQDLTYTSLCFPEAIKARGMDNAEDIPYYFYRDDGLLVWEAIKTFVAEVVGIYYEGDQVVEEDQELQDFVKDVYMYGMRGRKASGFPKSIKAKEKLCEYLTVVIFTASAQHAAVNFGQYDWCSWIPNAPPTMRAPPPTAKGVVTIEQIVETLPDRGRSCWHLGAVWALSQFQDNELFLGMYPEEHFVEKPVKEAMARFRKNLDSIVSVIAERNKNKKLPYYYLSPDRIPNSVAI
In words: Inhibition of 5-lipoxygenase (5-HETE and LTB4 biosynthesis) in Ca-ionophore-stimulated bovine PMNL. It is filed as cell-based. The protocol: Briefly, PMNLs were prepared from sodium EDTA-anticoagulated bovine blood, essentially as described by Walstra, P. et al., (Biochem. Biophys. Acta, 795:499-503 (1984)). Contaminating platelets were removed by repeated centrifugations at 100 g for 20 minutes. […] Cell counts were conducted with a Sysmex micro cell counter CC-130. Preincubation was performed with 2.4 ml of the suspension and 10 μl of a DMSO stock solution of test compounds at the desired concentrations in phosphate buffered saline (PBS) or vehicle control (DMSO at final concentration of 0.4%) for 15 minutes at 37° C. in a shaking water bath at 50 rpm. […] The incubation mixture was held on ice bath for 20 minutes and then centrifuged at 4000 g for 5 minutes at 0° C. The supernatant was diluted with 5 ml of water and passed through a prewashed (10 ml of methanol and 5 ml of water, sequentially) octadecylsilane reversed phase cartridge (Baker). The eicosanoids were eluted with 3 ml of methanol, diluted with 3 ml of water and subjected to reversed phase HPLC analysis using a 250×4 mm column packed with Nucleosil C18 (7 μm particles; Bischoff, Leonberg, Germany). The isocratic elution conditions of LTB4 were tetrahydrofuran (THF)/methanol/water/acetic acid (25+30+45+0.1), adjusted to pH 5.5 with concentrated NH3, at a flow rate of 0.9 ml/min (Kontron 420 pump), monitored at 280 nm with a Kontron 735 LC UV detector. 5-HETE was monitored at 232 nm using methanol/water/acetic acid (77+23+0.1), pH 5.5 and a flow rate 1.0 ml/min. Data were recorded on a MacLab data acquisition system (WissTech, Germany) and analysis was performed using the application Peaks on an Apple Macintosh Quadra 700 computer. Integrated areas of the peaks were compared to a PGB2 internal standard and to external standards of authentic samples. Molar absorption coefficients of Samuelsson et al., Borgeat, P. and B. Samuelsson, (Proc. Natl. Acad. Sci. USA, 76:2148-2152 (1979)), were used for making calculations. Inhibition was calculated by a comparison of the mean value of test compound (n=3) with control (n=6-8) activity: (1-test compound/control)×100.
See Walstra, P. et al., Biochem Biophys. Acta, 795:499-503 (1984); and Dannhardt et al. J. Pharm. Pharmacol., 44:419-424 (1992). […] (Schroder, J. M., J. Invest. Dermatol., 87:624-629 (1986); Tanzer, et al., Arch. Pharm. (Weinheim), 324:841-846 (1991)).

As for `CN(O)C(=O)Cc1ccc2c(c1O)C(=O)c1c(O)cccc1C2` [ID, N-Hydroxy-N-methyl-(9,10-dihydro-1,8-dihydroxy-9-oxo-2-anthracene)acetamide], the IC50 in series [1] amounted to 0.8 µM; in series [2] it was 29 µM. Also, the “DD (deoxyribose degradation, malondialdehyde released)” value (shortened to “DD”) in series [3] was 1.67 ± 0.08 μmol of MDA/mmol.
For `O=C(O)CCCCc1ccc2c(c1O)C(=O)c1c(O)cccc1C2` [IVA, 5-(9,10-Dihydro-1,8-dihydroxy-9-oxo-2-anthracene) pentanoic acid] the same measures were over 5 µM, 105 µM and 2.62 ± 0.41 μmol of MDA/mmol.
For `O=C(CCCCc1ccc2c(c1O)C(=O)c1c(O)cccc1C2)NO` [IVC, N-Hydroxy-5-(9,10-dihydro-1,8-dihydroxy-9-oxo-2-anthracene)pentanamide] the same measures were 2 µM, 62 µM and 1.38 ± 0.09 μmol of MDA/mmol.
On to `CN(O)C(=O)CCCCc1ccc2c(c1O)C(=O)c1c(O)cccc1C2` [IVD, N-Hydroxy-N-methyl-5-(9,10-dihydro-1,8-dihydroxy-9-oxo-2-anthracene)pentanamide], for which the IC50 in series [2] was 16 µM. Further, the “DD” value in series [3] was 1.36 ± 0.05 μmol of MDA/mmol.
On to `CN(O)C(=O)CCCCCc1ccc2c(c1O)C(=O)c1c(O)cccc1C2` [VD, N-Hydroxy-N-methyl-6-(9,10-dihydro-1,8-dihydroxy-9-oxo-2-anthracene)hexanamide], for which the IC50 amounted to 0.9 µM in series [1] and 15 µM in series [2].
Take `CC(C)C(C(=O)O)c1ccc2c(c1O)C(=O)c1c(O)cccc1C2` (centres unmarked) [VIIIA, 2-(9,10-Dihydro-1,8-dihydroxy-9-oxo-2-anthracene)-3-methylbutanoic acid]: the half-maximal inhibitory concentration (IC50) in series [1] was over 5 µM; in series [2], 155 µM. Further, the “DD” value in series [3] is on record as 3.58 ± 0.30 μmol of MDA/mmol.
For `CC(C)C(C(=O)N(C)O)c1ccc2c(c1O)C(=O)c1c(O)cccc1C2` (centres unmarked) [VIIID, N-Hydroxy-N-methyl-2-(9,10-dihydro-1,8-dihydroxy-9-oxo-2-anthracene)-3-methylbutanamide] the same measures were 1.5 µM, 12.5 µM and 0.86 ± 0.01 μmol of MDA/mmol.
For the molecule `O=C1c2c(O)cccc2Cc2ccc(C(CCc3ccccc3)C(=O)O)c(O)c21` (centres unmarked) [XA, 2-(9,10-Dihydro-1,8-dihydroxy-9-oxo-2-anthracene)-4-phenylbutanoic acid], the values for the IC50 in series [1] and in series [2] were over 5 µM and 62 µM, respectively. Further, the “DD” value in series [3] is on record as 2.47 ± 0.16 μmol of MDA/mmol.
On to `CCCCOc1ccc(CC(=O)NO)cc1` [bufexamac, reference compound], for which the IC50 was over 30 µM in series [4] (N = 3 or more); over 30 µM in series [4] (comparison with compounds of the invention, read-out: IC50); over 5 µM in series [1]; over 200 µM in series [2].

A word on the IC50: it is the concentration at which inhibition is half-maximal.
